Patent publication US20050239808A1, “Active substances for the treatment, diagnosis and prophylaxis of diseases in which abnormal protein structures occur” (priority 2002, published 2005)

Columns and labels:
[1] = target: T1, Aβ(1-42) (Homo sapiens, UniProt P05067); test: Aβ(1-42) aggregation assay by Fluorescence Correlation Spectroscopy (FCS); assay type: biochemical; details: 5.5-11 μM Aβ(1-42) + 22 nM oregon green-labelled Aβ(1-42), 10 nM of aminopyrazole (referring to the initial solution), 5-10% DMSO, 10 mM sodium phosphate buffer pH 7.2, room temperature, 12-72 hours
T1 construct: Aβ(1-42) was used as the model molecule in the aggregation experiments
T1 sequence (P05067 672-713 limits assumed): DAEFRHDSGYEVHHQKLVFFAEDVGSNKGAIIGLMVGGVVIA

[2] = target: T1, Aβ(1-42); assay type: biochemical; details: FIG. 10; 32.8 μM and 16.4 μM Aβ(1-42), 20 mM AmpOx, 6 h at room temperature, 6% DMSO, 100,000 g centrifugation
Protocol: Aβ(1-42) solutions were incubated under various conditions and their aggregation was analysed by a 100,000 g spin in an ultracentrifuge.
The Aβ(1-42) dissolved in 100% DMSO was diluted to a concentration of 11 μM in 10 mM of sodium phosphate buffer pH 7.2. All samples contained 22 nM of oregon green labelled Aβ(1-42) and were incubated for 48 hours at room temperature in 10% DMSO.
Aβ(1-42) was dissolved in 100% DMSO and diluted to a concentration of 32.8 μM and 16.4 μM in 10 mM of sodium phosphate buffer pH 7.2. The protein was incubated at room temperature for 6 h in 6% DMSO with and without 20 mM AmpOx.

[3] = Solubility of aminopyrazoles in DMSO and after dilution in sodium phosphate buffer
Protocol: These aminopyrazoles were dissolved in 100% DMSO. […] In order to eliminate particles, these dissolved solutions of aminopyrazoles were resolved in 10 mM of sodium phosphate buffer pH 7.2 to a final DMSO concentration of 5%. They were then filtered with Microcon YM 10 tubes.

SMILES | inhibition of Aβ(1-42) aggregation [1] | distribution of Aβ(1-42) between supernatant (S) and pellet (P), compared with the Trimer result [2] | solubility in 100% DMSO [3]
Cc1cc(NC(=O)C(=O)Nc2cc(C)[nH]n2)n[nH]1 [AmpOx, N,N′-Bis-(−5-methyl-1H-pyrazole-3-yl)-oxalic acid diamide] | able to disturb or inhibit the aggregation of Aβ(1-42) | almost identical results | not completely soluble
COC(=O)c1cc(NC(=O)c2cc(NC(=O)c3cc([N+](=O)[O-])[nH]n3)[nH]n2)[nH]n1 [Trimer] | able to disturb or inhibit the aggregation of Aβ(1-42) |  | 
